Positions of bridges follow the written chain, without caps; N, C: chain ends. Residues, ends and D or L forms follow the SMILES beside them.
Experiments:
[1] = test system: V1a, V1b, and V2 receptors; conditions: cited from earlier work
[2] = test system: mean arterial pressure (MAP); assay: Telemetry: ΔMAP in cynomolgus monkeys, Compound 1 (SC) versus terlipressin (IV); assay type: in vivo, cynomolgus monkey
Experimental: The in-life portion of the study was performed over multiple dosing sessions using six non-naive adult male cynomolgus monkeys. Animals were previously (3-4 weeks before study start) instrumented with indwelling pressure telemetry devices and trained to be restrained in chairs. Animals had access to food and drinking water ad libitum.
Stock solutions were diluted in saline on the day of administration. Animals with indwelling pressure telemetry devices were trained to be restrained in chairs for 8-h periods.
On the day of administration, animals were restrained, and telemetric measurements were collected continuously starting ≥2 h before administration. Baseline values of arterial pressure (diastolic and systolic), heart rate, and body temperature were obtained.
The data reported herein were collected over 19 dosing sessions of four animals each, using a total of six monkeys. Animals were repeat dosed in a crossover design with at least one animal receiving vehicle for each round; the animal receiving vehicle was varied between rounds. A 48- to 72-h washout period was used between dosing sessions. Animals were observed by camera for ~1 h before dosing (covering the baseline period) and up to 3 h after dosing.

[3] = test system: methionine/choline-deficient (MCD) diet rats; assay: ΔPP in methionine/choline-deficient (MCD) diet rats; assay type: in vivo, rat; conditions: 100 μg/kg, IA, MCD diet rats
[4] = test system: methionine/choline-deficient (MCD) diet rats; assay: MAP / ΔMAP in methionine/choline-deficient (MCD) diet rats; assay type: in vivo, rat; conditions: for Δ MAP (mean): 100 μg/kg, IA, MCD diet rats
Experimental: The terlipressin dose was 100 μg/kg.
Data were evaluated as change […] from baseline.

blood lactate = assay: Blood lactate concentration, anesthetized Wistar rats, IV infusion; assay type: in vivo, rat
Experimental: This study was performed over multiple experiments using a total of 48 adult male Wistar rats. […] Compounds were infused via an IV catheter at six sequentially increasing doses. A group of vehicle-administered animals received vehicle throughout the study and data were reported from intervals timed analogously with the dose-response in compound 1-administered animals.
(§1) On the day of experimentation animals were anesthetized and instrumented. A tracheostomy was performed to allow assisted respiration and three catheters were placed. Laser Doppler probes were positioned on a shaved portion of the animal's lower abdominal skin for blood-flow measurements. Ventilation was initiated, and baseline readings for the primary parameter of skin blood flow (SBF) were recorded. Readings for the secondary parameters were also recorded: (1) blood lactate concentration, (2) mean arterial pressure (MAP), and (3) blood pH. Data collection was performed continuously for SBF and MAP using NOTOCORD-hem™ (Instem), and blood samples were taken at each compound dose and immediately analyzed using an i-STAT® meter.

rOTR = molecular target: T1, rOTR (Rattus norvegicus, UniProt P70536); assay: Luciferase reporter gene assay, rat OT; assay type: cell-based; conditions: read-out: % MPE
T1 construct: expressed in transfected cells
T1 sequence (P70536 1-388): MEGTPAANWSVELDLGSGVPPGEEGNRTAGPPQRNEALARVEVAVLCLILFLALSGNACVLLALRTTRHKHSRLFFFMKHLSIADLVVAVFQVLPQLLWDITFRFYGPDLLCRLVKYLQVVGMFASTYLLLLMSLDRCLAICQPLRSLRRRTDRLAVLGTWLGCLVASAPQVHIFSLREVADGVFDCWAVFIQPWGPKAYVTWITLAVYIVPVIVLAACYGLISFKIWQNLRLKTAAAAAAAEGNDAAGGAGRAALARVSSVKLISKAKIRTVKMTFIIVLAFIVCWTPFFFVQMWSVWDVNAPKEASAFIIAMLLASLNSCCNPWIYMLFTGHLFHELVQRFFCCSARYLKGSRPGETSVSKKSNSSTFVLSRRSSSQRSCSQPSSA
Experimental: (§2) Cell Lines. Studies were conducted with cell lines expressing rat (r) or human (h) Via, V1b, V2, or OT receptors. For the experiments with human receptors, human embryonic kidney (HEK)-flp-in cells stably expressing the lacZ-Zeocin™ fusion gene were used for expression of hV1a and hV1b. These cells were designed for use with the Flp-In™ expression vector containing the gene of interest (here hV1a or hV1b) and the Flp recombinase expression plasmid, pOG44. For hV2 and hOTR, HEK-293 cells transiently expressing hV2 were used.
(§3) Functional Cell-Based Assays.

rV2 receptor = molecular target: T2, rV2 receptor (Rattus norvegicus, UniProt Q00788); assay: Luciferase reporter gene assay, rat V2; assay type: cell-based; conditions: read-out: % MPE
T2 construct: expressed in transfected cells; host or cells: HEK-293 cells (ATCC), transient
Experimental: as §2, §3

skin blood flow (SBF) = assay: Skin blood flow (SBF), laser Doppler, anesthetized Wistar rats, IV infusion; assay type: in vivo, rat
Experimental: This study was performed over multiple experiments using a total of 48 adult male Wistar rats. […] Compounds were infused via an IV catheter at six sequentially increasing doses.
as §1
After the final dose administration, animals were euthanized and a final SBF measurement was recorded to detect any signal from the flow probe after the animal's heart stopped beating to control for a signal not attributed to blood flow. Animal body temperature, pulse, and ventilation adequacy were monitored throughout the procedure.

T2 sequence (Q00788 whole entry): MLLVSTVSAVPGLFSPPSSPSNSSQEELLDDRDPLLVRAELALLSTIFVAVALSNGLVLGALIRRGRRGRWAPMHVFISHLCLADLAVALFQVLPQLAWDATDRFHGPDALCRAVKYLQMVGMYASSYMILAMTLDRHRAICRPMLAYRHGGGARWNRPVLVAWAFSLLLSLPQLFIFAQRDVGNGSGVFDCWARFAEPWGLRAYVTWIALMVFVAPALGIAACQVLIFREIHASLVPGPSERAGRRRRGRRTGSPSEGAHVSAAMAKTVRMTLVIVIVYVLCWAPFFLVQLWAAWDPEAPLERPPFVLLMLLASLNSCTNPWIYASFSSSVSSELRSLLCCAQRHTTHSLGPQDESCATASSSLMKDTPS

## NCCCC[C@H](NC(=O)[C@@H]1CCCN1C(=O)[C@@H]1CSSC[C@H](N)C(=O)N[C@@H](Cc2ccc(O)cc2)C(=O)N[C@@H](Cc2ccccc2)C(=O)N[C@@H](CCC(N)=O)C(=O)N[C@@H](CC(N)=O)C(=O)N1)C(=O)NCC(N)=O [Lysine vasopressin (LVP), Lysine vasopressin]
[1]; V1a, V1b, and V2 receptors
  receptor agonism type: full agonist

## NCCCC[C@H](NC(=O)[C@@H]1CCCN1C(=O)[C@@H]1CSSC[C@H](NC(=O)CNC(=O)CNC(=O)CN)C(=O)N[C@@H](Cc2ccc(O)cc2)C(=O)N[C@@H](Cc2ccccc2)C(=O)N[C@@H](CCC(N)=O)C(=O)N[C@@H](CC(N)=O)C(=O)N1)C(=O)NCC(N)=O [Terlipressin, reference compound] (H-GGGCYFQNCPKG-NH2; disulfide 4-9)
[2]; IV 0.03 mg/kg
  average increase in MAP, 30 min to 5 h: 6.0 mmHg
[2]; IV 0.03 mg/kg (vehicle 22.2)
  maximum MAP values (increase from baseline): 29.6±3.6 mmHg
[2]; IV 0.09 mg/kg
  average increase in MAP, 30 min to 5 h: 5.8 mmHg
[2]; IV 0.09 mg/kg (vehicle 22.2)
  maximum MAP values (increase from baseline): 29.9±6.2 mmHg
[2]; IV 0.17 mg/kg
  average increase in MAP, 30 min to 5 h: 14.6 mmHg
[2]; IV 0.17 mg/kg (vehicle 22.2)
  maximum MAP values (increase from baseline): 50.8±5.6 mmHg
[2]; IV 0.34 mg/kg
  average increase in MAP, 30 min to 5 h: 14.7 mmHg
[2]; IV 0.34 mg/kg (vehicle 22.2)
  maximum MAP values (increase from baseline): 41.2±7.5 mmHg
[2]; IV, all groups
  time of maximum ΔMAP: 5 to 30 min
  ΔMAP by 150 min: negligible
[3]; 0 min
  Δ PP (mean): 0.0 mmHg
[3]; 1 min
  Δ PP (mean): −1.5 mmHg
[3]; 2 min
  Δ PP (mean): −2.1 mmHg
[3]; 3 min
  Δ PP (mean): −2.3 mmHg
[3]; 5 min
  Δ PP (mean): −2.4 mmHg
[3]; 7 min
  Δ PP (mean): −2.5 mmHg
[3]; 10 min
  Δ PP (mean): −2.4 mmHg
[3]; 15 min
  Δ PP (mean): −2.5 mmHg
[3]; 20 min
  Δ PP (mean): −2.6 mmHg
[3]; 30 min
  Δ PP (mean): −2.5 mmHg
[3]; 60 min
  Δ PP (mean): −2.8 mmHg
[3]; 90 min
  Δ PP (mean): −0.8 mmHg
[1]; gastrointestinal disorders, sepsis, respiratory failure
  serious adverse events: associated with serious adverse events
[1]; non-selective full agonist, continuous i.v. infusion
  effect on ascites formation: reduced ascites formation
[1]; plus albumin, HRS-AKI, versus placebo
  short-term mortality: reduces short-term mortality
[4]; 0 min
  Δ MAP (mean): 0.0 mmHg
[4]; 1 min
  Δ MAP (mean): 6.1 mmHg
[4]; 10 min
  Δ MAP (mean): 32.0 mmHg
[4]; 90 min
  Δ MAP (mean): 5.2 mmHg
[4]; intra-arterial, FIG. 34
  rapid increase in MAP, up to: about 35 mmHg

## NC(=O)CC[C@@H]1NC(=O)[C@H](Cc2ccccc2)NC(=O)[C@H](Cc2ccc(O)cc2)NC(=O)[C@@H](N)CSSC[C@@H](C(=O)N2CCC[C@H]2C(=O)N[C@@H](CCCN=C(N)N)C(=O)NCC(N)=O)NC(=O)[C@H](CC(N)=O)NC1=O [AVP, arginine vasopressin, reference compound]
Blood lactate; 3 pmoL/kg/min IV
  blood lactate concentration: 1.34 mM
Blood lactate; 600 pmoL/kg/min IV
  blood lactate concentration: 4.27 mM
Blood lactate; IV
  increase in blood lactate levels: ≥ 2 fold
Blood lactate; IV, up to maximum dose tested
  effect on blood lactate concentration: significantly elevated
rOTR
  Emax: 82%
rV2 receptor
  Emax: 98%
Skin blood flow (SBF)
  SBF ED50: 12.6 pmol/kg/min
  decrease in skin blood flow, approximate maximum: about 90%
  greatest percent change from baseline in skin flow: −89.5%
